Reference: patent publication US20250059193A1, “POLYMORPHIC AND SALT FORMS OF (1S,3S)-N1-(5-(PENTAN-3-YL)PYRAZOLO[1,5-A]PYRIMIDIN-7-YL) CYCLOPENTANE-1,3-DIAMINE” (Kronos Bio, Inc., priority 2021, published 2025)
Structures can show the parent of a compound that is named as a salt.

Tests used:
Format in all cases: physicochemical
[1] = Accelerated aging conditions (AAC; 40° C./75% RH), solids reanalyzed by XRPD; details: solid form by XRPD
Experimental: (§1) Next, the resulting solids were combined with another solvent (acetonitrile (AcN) or ethanol) and the resulting mixtures were stirred at room temperature (RT). After stirring, the solids were isolated by centrifugation and part of the solids was harvested on a 96-well plate and dried under ambient conditions. The remaining part of the solids was dried under vacuum (5 mbar [i.e. 500 Pa], RT, 18 h). All solids were analyzed by XRPD, subjected to accelerated aging conditions (AAC; 40° C./75% RH) and reanalyzed by XRPD. The procedure and resulting tosylate forms are shown in the table below, wherein forms were identified by XRD.
as §1, with “chloroform)” for “ethanol)”, “mbar,” for “mbar [i.e. 500 Pa],”, “AAC (accelerated” for “accelerated”, “conditions;” for “conditions (AAC;”, “XRPD.” for “XRPD. The procedure and resulting tosylate forms are shown in the table below, wherein forms were identified by XRD.”
(§2) Next, the resulting solids were combined with another solvent (AcN, diethyl ether, or toluene), and the resulting mixtures were stirred at room temperature (RT). After stirring, the solids were isolated by centrifugation and part of the solids was harvested on a 96-well plate and dried under ambient conditions. The remaining part of the solids was dried under vacuum (5 mbar, RT, 18 h). All solids were analyzed by XRPD, subjected to AAC (40° C./75% RH) and reanalyzed by XRPD.
as §2, with “(1,4-dioxane, acetonitrile, ethyl acetate),” for “(AcN, diethyl ether, or toluene),”
as §2, with “(acetonitrile or” for “(AcN,”, “ether),” for “ether, or toluene),”

[2] = Repeat XRD of amorphous free base from slow evaporation of ethanol solution; details: product of slow evaporation of ethanol solution of form I
Experimental: Initial attempts to generate an amorphous form of the free base were conducted by slow evaporation of a form I solution. In particular, form I was dissolved in ethanol according to the chart below and then allowed to slowly evaporate.

[3] = pH of the solubility samples
Experimental: The pH was recorded with a Metrohm 913 PH meter, equipped with a WTW SenTix® MIC-B electrode.
(§3) FaSSGF is Fasted State Simulated Gastric Fluid. Solubility is reported in mg/mL.

[4] = Solubility of free base and salt forms; details: for solubility compared with the free base: physiological conditions, salt forms versus free base; for solubility at 24 h: thermodynamic from solid
Source text: as §3

[5] = Medium 100 mM phosphate, pH Buffer 6.8

Row | SMILES | 3 days AAC (XRPD form) [1] | pH (30 min) [3, 5] | pH (2 h) [3, 5] | pH (24 h) [3, 5] | pH (30 min) ([3]; Medium FaSSGF, pH Buffer 1.6) | pH (2 h) ([3]; Medium FaSSGF, pH Buffer 1.6) | pH (24 h) ([3]; Medium FaSSGF, pH Buffer 1.6) | Solubility (2 h) [4, 5] | Solubility (24 h) [4, 5] | Solubility (2 h) ([4]; Medium FaSSGF, pH Buffer 1.6) | Solubility (24 h) ([4]; Medium FaSSGF, pH Buffer 1.6) | solubility compared with the free base [4] | also measured
1 | CCC(CC)c1cc(N[C@H]2CC[C@H](N)C2)n2nccc2n1 [Tosylate amorphous] | Form II | – | – | – | – | – | – | – | – | – | – | – | 5 days AAC (XRPD form) [1]: Form II
2 | CCC(CC)c1cc(N[C@H]2CC[C@H](N)C2)n2nccc2n1 [amorphous product] | – | – | – | – | – | – | – | – | – | – | – | – | XRD of amorphous product after about 45 minutes [2]: began crystalizing
3 | CCC(CC)c1cc(N[C@H]2CC[C@H](N)C2)n2nccc2n1 [Camsylate II] | Form II | 4.1 | 7.4 | 7.5 | 1.6 | 1.7 | 1.7 | 28.9 mg/mL | 42.2 mg/mL | >380 mg/mL | >380 mg/mL | increased | 5 days AAC (XRPD form) [1]: Form III
4 | CCC(CC)c1cc(N[C@H]2CC[C@H](N)C2)n2nccc2n1 [Citrate I] | – | 4.5 | 6.7 | 6.7 | 4.4 | 1.6 | 1.6 | >137 mg/mL | >137 mg/mL | >127 mg/mL | >127 mg/mL | increased | –
5 | CCC(CC)c1cc(N[C@H]2CC[C@H](N)C2)n2nccc2n1 [Tosylate III] | – | 2.7 | 6.8 | 7.0 | 1.0 | 1.9 | 2.1 | 8.7 mg/mL | 2.92 mg/mL | >129 mg/mL | >129 mg/mL | increased | –
6 | CCC(CC)c1cc(N[C@H]2CC[C@H](N)C2)n2nccc2n1 [Fumarate IV] | Form III | – | – | – | – | – | – | – | – | – | – | – | –
7 | CCC(CC)c1cc(N[C@H]2CC[C@H](N)C2)n2nccc2n1 [Free base I, (1S,3S)—N^1—(5-(pentan-3-yl)pyrazolo[1,5-α]pyrimidin-7-yl)cyclopentane-1,3-diamine] | – | – | – | – | – | – | – | – | – | – | – | – | pH (24 h) ([3]; Medium 50 mM phosphate, pH Buffer 1.6 as printed): 9.4; pH (24 h) ([3]; Medium FaSSGF, pH Buffer 7.4 as printed): 10.2; pH (24 h) ([3]; Medium Water): 10.1; solubility at 24 h ([4]; 50 mM phosphate buffer, pH 1.6, aqueous buffer, Medium 50 mM phosphate, pH Buffer 1.6 as printed): 9.8 mg/mL; solubility at 24 h ([4]; FaSSGF (Fasted State Simulated Gastric Fluid), pH 7.4, fassgf or other biorelevant, Medium FaSSGF, pH Buffer 7.4 as printed): 5.9 mg/mL; solubility ([4]; water): 5.9 mg/mL; solubility at 24 h ([4]; water, Medium Water): 5.1 mg/mL

Continued, in another order:

Row | 3 days AAC (XRPD form) [1] | pH (30 min) [3, 5] | pH (2 h) [3, 5] | pH (24 h) [3, 5] | pH (30 min) ([3]; Medium FaSSGF, pH Buffer 1.6) | pH (2 h) ([3]; Medium FaSSGF, pH Buffer 1.6) | pH (24 h) ([3]; Medium FaSSGF, pH Buffer 1.6) | Solubility (2 h) [4, 5] | Solubility (24 h) [4, 5] | Solubility (2 h) ([4]; Medium FaSSGF, pH Buffer 1.6) | Solubility (24 h) ([4]; Medium FaSSGF, pH Buffer 1.6) | solubility compared with the free base [4] | SMILES | also measured
8 | Form III | – | – | – | – | – | – | – | – | – | – | – | CCC(CC)c1cc(N[C@H]2CC[C@H](N)C2)n2nccc2n1 [Fumarate II] | –
9 | Form III | – | – | – | – | – | – | – | – | – | – | – | CCC(CC)c1cc(N[C@H]2CC[C@H](N)C2)n2nccc2n1 [fumarate salt] | –
10 | – | 2.1 | 6.7 | 6.8 | 1.6 | 1.6 | 1.5 | 55.5 mg/mL | 38.1 mg/mL | >392 mg/mL | >392 mg/mL | increased | CCC(CC)c1cc(N[C@H]2CC[C@H](N)C2)n2nccc2n1 [Oxalate III] | –
11 | Form II | – | – | – | – | – | – | – | – | – | – | – | CCC(CC)c1cc(N[C@H]2CC[C@H](N)C2)n2nccc2n1 [Oxalate II] | 5 days AAC (XRPD form) [1]: Form II
12 | – | 4.5 | 7.2 | 7.3 | 4.1 | 1.6 | 1.7 | >107 mg/mL | >107 mg/mL | >48 mg/mL | >48 mg/mL | increased | CCC(CC)c1cc(N[C@H]2CC[C@H](N)C2)n2nccc2n1 [Fumarate III] | –
